Assay results from the NIST ThermoML archive (doi:10.1016/j.jct.2008.12.022).
Numbers after ± are expanded uncertainties.

Conditions: 101.33 kPa, Liquid; for viscosity: Capillary tube (Ostwald / Ubbelohde) method; for mass density: Pycnometric method

| viscosity (303.15 K) | mass density (303.15 K) | viscosity (313.15 K) | mass density (313.15 K) | viscosity (323.15 K) | mass density (323.15 K) | viscosity (333.15 K) | mass density (333.15 K) | viscosity (343.15 K) | mass density (343.15 K) | Structure (SMILES) |
| --- | --- | --- | --- | --- | --- | --- | --- | --- | --- | --- |
| 32.4 ± 0.73 mPa·s | 1029 ± 1 kg/m3 | 19.12 ± 0.45 mPa·s | 1021 ± 1 kg/m3 | 12.1 ± 0.28 mPa·s | 1014 ± 1 kg/m3 | 8.19 ± 0.18 mPa·s | 1006 ± 1 kg/m3 | 5.704 ± 0.13 mPa·s | 999 ± 1 kg/m3 | CC(O)CO (stereo not given) [1,2-propanediol] |
| 29.27 ± 0.7 mPa·s | 1116 ± 2 kg/m3 | 18.96 ± 0.46 mPa·s | 1109 ± 2 kg/m3 | 12.96 ± 0.31 mPa·s | 1101 ± 2 kg/m3 | 9.288 ± 0.22 mPa·s | 1093 ± 2 kg/m3 | 6.906 ± 0.17 mPa·s | 1086 ± 2 kg/m3 | OCCOCCOCCO [triethylene glycol] |
